Source: the NIST ThermoML archive (doi:10.1021/je101139k)
Numbers after ± are expanded uncertainties.

Columns and labels:
[1] = Crystal; DTA
[2] = Molar enthalpy of transition or fusion; details: Crystal; DSC
[3] = molar heat capacity at constant pressure; details: 101.33 kPa, Small sample (50 mg) DSC

[Br-].[Br-].[Br-].[Pr+3] [praseodymium(III) bromide]
Details	Molar enthalpy of transition or fusion [kcal/mol]	Normal melting temperature [°C]
[1]	–	687 ± 1
[2]	11.1 ± 0.359	–

molar heat capacity at constant pressure [J/K/mol], [3]
Details	Crystal	Liquid
298.15 K	105.37 ± 7.6	–
300 K	105.39 ± 7.6	–
331 K	105.87 ± 7.6	–
400 K	106.93 ± 7.7	–
500 K	108.46 ± 7.8	–
600 K	109.99 ± 7.9	–
700 K	111.52 ± 8	–
800 K	113.05 ± 8.1	–
900 K	114.58 ± 8.2	–
960 K	115.5 ± 8.3	141.39 ± 10
1000 K	–	141.39 ± 10
1065 K	–	141.39 ± 10
1100 K	–	141.39 ± 10
1191 K	–	141.39 ± 10
1200 K	–	141.39 ± 10
1300 K	–	141.39 ± 10
